According to doi:10.1101/2023.11.24.568596v1 (biorxiv, 2023):

Experiments:
Settings in all cases: binder
[1] = target: T1, DRAK1 (Homo sapiens, UniProt Q9UEE5)
T1 sequence (Q9UEE5 1-414): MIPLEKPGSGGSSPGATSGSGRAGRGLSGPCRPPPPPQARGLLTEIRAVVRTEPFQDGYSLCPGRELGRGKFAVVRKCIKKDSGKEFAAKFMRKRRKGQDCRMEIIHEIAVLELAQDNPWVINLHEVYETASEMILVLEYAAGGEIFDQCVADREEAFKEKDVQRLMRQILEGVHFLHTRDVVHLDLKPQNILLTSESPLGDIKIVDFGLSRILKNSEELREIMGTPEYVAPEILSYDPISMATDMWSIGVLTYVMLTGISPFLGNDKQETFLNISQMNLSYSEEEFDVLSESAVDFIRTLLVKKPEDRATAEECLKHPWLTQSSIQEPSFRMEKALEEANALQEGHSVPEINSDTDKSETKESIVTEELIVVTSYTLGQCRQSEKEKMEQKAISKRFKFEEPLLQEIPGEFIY

[2] = target: SLK (Homo sapiens, UniProt Q9H2G2)
[3] = target: T2, TLK1 (Homo sapiens, UniProt Q9UKI8)
T2 sequence (Q9UKI8 1-766): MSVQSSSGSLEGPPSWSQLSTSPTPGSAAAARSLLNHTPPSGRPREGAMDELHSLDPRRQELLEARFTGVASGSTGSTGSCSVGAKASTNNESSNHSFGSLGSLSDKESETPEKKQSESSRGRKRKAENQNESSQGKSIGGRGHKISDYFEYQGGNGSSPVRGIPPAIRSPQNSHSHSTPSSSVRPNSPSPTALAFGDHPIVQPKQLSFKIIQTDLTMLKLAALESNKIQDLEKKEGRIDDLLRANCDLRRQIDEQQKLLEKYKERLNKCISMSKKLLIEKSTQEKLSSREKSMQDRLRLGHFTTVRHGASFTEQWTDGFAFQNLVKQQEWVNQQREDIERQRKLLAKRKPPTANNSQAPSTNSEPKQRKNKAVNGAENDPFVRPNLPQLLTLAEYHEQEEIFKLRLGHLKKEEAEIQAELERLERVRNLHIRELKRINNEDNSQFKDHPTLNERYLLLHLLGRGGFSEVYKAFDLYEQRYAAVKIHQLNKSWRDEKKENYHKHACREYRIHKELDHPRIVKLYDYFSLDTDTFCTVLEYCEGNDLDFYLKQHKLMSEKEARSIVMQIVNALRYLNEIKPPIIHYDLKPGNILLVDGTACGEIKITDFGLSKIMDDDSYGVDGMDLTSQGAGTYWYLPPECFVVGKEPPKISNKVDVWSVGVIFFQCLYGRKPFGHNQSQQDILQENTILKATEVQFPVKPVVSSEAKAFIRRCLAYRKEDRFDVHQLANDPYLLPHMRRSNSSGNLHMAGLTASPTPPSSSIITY

[4] = target: STLK3 (Homo sapiens, UniProt Q9UEW8)
[5] = target: T3, VRK1 (Homo sapiens, UniProt Q99986)
T3 sequence (Q99986 1-396): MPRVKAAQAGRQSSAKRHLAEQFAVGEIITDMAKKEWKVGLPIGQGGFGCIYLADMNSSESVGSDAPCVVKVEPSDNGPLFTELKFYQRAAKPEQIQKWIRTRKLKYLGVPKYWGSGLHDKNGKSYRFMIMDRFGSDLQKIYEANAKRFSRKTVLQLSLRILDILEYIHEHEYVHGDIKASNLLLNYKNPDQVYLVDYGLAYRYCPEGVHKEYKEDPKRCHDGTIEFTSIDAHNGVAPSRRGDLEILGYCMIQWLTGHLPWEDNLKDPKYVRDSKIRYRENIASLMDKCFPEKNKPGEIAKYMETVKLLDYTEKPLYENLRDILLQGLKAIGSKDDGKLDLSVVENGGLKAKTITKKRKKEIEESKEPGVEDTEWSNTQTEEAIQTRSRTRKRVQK

[6] = target: Wnk1 (Homo sapiens, UniProt Q9H4A3)
[7] = target: T4, MST2 (Homo sapiens, UniProt Q13188)
T4 sequence (Q13188 1-491): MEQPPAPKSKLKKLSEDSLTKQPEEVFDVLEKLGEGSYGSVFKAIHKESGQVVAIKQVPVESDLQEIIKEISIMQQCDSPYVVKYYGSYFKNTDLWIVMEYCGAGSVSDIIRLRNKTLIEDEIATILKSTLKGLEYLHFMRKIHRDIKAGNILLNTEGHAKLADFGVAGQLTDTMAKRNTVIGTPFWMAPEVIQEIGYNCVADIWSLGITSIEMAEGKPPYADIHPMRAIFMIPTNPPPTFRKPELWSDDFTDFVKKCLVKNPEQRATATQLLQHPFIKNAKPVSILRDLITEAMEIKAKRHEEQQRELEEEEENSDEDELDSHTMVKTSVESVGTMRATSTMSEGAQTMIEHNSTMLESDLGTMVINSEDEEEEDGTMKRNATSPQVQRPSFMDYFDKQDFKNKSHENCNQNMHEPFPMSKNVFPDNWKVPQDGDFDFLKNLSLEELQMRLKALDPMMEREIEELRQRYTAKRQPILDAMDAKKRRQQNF

[8] = target: MST3 (Homo sapiens, UniProt Q9Y6E0)
Chain of MST3 (Q9Y6E0 whole entry): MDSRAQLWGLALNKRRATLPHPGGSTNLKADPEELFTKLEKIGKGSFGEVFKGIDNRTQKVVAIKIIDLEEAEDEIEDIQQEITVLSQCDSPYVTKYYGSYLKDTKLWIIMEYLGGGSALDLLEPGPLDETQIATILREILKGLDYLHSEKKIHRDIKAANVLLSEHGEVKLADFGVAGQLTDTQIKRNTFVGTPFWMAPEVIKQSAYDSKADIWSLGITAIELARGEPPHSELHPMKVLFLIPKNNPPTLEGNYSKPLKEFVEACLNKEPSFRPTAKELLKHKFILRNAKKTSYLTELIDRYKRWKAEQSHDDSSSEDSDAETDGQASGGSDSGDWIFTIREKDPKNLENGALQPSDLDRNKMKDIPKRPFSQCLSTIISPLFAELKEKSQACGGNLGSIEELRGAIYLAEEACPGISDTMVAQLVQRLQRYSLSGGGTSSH

Chain of SLK (Q9H2G2 whole entry): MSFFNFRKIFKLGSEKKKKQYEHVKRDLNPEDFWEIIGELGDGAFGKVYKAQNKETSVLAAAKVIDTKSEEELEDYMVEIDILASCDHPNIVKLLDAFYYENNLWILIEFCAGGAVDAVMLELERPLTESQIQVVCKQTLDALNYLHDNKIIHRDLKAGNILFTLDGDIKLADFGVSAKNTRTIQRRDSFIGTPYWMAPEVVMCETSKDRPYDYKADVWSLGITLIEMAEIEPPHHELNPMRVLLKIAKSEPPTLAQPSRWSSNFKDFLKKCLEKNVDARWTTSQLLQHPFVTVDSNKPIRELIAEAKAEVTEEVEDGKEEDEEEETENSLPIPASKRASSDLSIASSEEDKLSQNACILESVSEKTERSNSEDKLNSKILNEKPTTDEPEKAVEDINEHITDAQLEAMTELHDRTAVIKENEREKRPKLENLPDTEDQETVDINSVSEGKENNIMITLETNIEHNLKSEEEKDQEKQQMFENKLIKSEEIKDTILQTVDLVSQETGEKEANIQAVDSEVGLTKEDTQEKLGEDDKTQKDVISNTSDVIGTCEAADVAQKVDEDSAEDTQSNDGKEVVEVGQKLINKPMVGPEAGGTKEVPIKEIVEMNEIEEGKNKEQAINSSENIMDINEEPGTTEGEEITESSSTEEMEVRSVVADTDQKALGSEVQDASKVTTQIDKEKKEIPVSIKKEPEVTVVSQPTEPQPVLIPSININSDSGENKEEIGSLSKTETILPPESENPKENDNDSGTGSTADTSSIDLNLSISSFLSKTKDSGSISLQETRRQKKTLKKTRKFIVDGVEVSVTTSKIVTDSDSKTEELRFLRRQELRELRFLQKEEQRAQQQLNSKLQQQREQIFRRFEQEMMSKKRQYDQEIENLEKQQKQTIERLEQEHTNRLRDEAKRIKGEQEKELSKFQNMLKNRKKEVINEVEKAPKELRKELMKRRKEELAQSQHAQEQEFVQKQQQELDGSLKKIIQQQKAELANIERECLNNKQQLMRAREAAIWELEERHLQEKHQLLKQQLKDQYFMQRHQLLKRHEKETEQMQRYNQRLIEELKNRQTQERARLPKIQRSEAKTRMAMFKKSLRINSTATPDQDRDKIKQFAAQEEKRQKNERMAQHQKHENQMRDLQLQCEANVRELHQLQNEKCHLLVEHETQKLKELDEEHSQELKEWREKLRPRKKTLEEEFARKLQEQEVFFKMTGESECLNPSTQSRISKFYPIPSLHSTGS
Chain of Wnk1 (Q9H4A3 whole entry): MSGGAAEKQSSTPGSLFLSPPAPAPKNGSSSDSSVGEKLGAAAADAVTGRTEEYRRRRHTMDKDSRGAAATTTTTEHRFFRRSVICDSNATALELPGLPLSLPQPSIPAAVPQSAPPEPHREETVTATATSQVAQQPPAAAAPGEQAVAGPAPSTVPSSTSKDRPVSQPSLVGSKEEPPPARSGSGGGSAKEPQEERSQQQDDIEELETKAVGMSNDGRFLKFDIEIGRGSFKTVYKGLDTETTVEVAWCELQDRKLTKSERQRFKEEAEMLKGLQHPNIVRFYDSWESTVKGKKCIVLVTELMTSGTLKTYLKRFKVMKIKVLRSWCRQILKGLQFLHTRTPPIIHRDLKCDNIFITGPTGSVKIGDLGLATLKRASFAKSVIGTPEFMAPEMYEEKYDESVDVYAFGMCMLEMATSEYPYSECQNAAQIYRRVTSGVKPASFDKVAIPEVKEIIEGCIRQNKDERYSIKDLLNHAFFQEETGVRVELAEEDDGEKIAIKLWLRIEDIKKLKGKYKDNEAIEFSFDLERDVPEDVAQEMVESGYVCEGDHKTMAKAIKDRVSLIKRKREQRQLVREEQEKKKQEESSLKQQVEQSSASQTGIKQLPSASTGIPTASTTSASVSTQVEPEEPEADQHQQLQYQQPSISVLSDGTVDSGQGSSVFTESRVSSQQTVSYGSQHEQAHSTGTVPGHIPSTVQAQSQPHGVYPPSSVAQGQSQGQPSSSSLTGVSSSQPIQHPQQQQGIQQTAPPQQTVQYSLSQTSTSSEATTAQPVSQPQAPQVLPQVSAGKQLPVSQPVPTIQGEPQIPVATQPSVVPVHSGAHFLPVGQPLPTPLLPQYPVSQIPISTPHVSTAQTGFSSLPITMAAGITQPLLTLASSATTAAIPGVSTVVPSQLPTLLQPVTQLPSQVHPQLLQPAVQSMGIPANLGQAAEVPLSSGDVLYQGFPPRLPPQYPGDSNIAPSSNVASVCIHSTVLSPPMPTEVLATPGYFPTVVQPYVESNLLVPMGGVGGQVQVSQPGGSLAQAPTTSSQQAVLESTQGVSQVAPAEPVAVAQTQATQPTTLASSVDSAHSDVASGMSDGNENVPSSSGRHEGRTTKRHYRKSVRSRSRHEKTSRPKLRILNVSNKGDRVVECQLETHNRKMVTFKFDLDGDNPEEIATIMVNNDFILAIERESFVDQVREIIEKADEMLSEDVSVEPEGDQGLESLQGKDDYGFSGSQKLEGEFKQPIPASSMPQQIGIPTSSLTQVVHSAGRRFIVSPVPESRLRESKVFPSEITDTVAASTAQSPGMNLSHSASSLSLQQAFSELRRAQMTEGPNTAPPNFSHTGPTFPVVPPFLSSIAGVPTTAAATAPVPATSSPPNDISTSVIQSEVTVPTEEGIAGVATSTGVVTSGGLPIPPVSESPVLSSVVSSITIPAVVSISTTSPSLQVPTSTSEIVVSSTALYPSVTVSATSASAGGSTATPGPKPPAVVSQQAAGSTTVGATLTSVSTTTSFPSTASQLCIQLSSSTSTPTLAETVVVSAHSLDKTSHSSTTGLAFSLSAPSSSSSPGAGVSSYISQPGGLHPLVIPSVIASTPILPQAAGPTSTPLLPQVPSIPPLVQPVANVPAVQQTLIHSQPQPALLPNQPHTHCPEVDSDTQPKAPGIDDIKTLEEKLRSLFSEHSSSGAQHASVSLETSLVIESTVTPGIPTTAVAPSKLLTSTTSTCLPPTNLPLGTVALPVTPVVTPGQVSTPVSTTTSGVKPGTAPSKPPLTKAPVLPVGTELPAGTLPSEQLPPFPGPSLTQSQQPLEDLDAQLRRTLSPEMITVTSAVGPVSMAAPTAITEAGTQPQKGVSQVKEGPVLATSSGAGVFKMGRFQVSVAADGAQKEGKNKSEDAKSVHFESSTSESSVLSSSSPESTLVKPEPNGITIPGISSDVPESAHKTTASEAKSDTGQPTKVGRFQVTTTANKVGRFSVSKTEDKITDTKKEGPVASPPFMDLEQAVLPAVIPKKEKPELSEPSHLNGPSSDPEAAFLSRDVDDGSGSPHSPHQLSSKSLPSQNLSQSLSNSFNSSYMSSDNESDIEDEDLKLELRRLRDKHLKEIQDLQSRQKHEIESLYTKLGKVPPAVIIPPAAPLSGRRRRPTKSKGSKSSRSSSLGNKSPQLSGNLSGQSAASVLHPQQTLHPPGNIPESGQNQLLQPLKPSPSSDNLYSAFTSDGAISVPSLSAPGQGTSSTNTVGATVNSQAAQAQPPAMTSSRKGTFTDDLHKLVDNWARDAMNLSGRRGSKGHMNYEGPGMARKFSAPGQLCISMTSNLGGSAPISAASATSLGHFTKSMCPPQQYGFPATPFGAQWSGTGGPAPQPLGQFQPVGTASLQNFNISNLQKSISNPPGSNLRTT

## CNc1ncc2cc(-c3ccc(-c4cccc(C)n4)cc3Cl)c(=O)n(CCCCN)c2n1 [compound 20, MRLW5]
[1]
  ΔTm MRLW5 (20): -0.5 °C
[2]
  ΔTm MRLW5 (20): 9.1 °C
[3]
  ΔTm MRLW5 (20): 0.6 °C
[4]
  ΔTm MRLW5 (20): 1.8 °C
[5]
  ΔTm MRLW5 (20): 0.0 °C
[6]
  ΔTm MRLW5 (20): 1.7 °C

## Cc1cccc(-c2ccc(-c3cc4cnc(NCCCN5CCCC5=O)nc4n(CCCCN)c3=O)c(Cl)c2)n1 [compound 27, MR30]
[7]
  dTm MST2: 2.2 °C
[8]
  dTm MST3: 10.6 °C
[2]
  ΔTm MR30 (27): 2.6 °C
[3]
  ΔTm MR30 (27): -2.0 °C
[4]
  ΔTm MR30 (27): 10.0 °C
[5]
  ΔTm MR30 (27): -0.1 °C
[6]
  ΔTm MR30 (27): 0.8 °C

## Cc1cccc(-c2ccc(-c3cc4cnc(Nc5cc(C(F)(F)F)ccc5C)nc4n(CCCCN)c3=O)c(Cl)c2)n1 [compound 28, 8-(4-Aminobutyl)-6-(2-chloro-4-(6-methylpyridin-2-yl)phenyl)-2-((2-methyl-5-(trifluoromethyl)phenyl)amino)pyrido[2,3-d]pyrimidin-7(8H)-one]
[7]
  dTm MST2: 10.2 °C
[8]
  dTm MST3: 13.0 °C
[2]
  ΔTm 28: 4.5 °C
[3]
  ΔTm 28: -1.8 °C
[4]
  ΔTm 28: 10.4 °C
[5]
  ΔTm 28: 0.8 °C
[6]
  ΔTm 28: 2.8 °C

## Cc1cccc(-c2ccc(-c3cc4cnc(NCCCN5CCNCC5)nc4n(CCCCN)c3=O)c(Cl)c2)n1 [compound 29, 8-(4-Aminobutyl)-6-(2-chloro-4-(6-methylpyridin-2-yl)phenyl)-2-((3-(piperazin-1-yl)propyl)amino)pyrido[2,3-d]pyrimidin-7(8H)-one]
[7]
  dTm MST2: 5.2 °C
[8]
  dTm MST3: 13.0 °C
[2]
  ΔTm 29: 3.5 °C
[3]
  ΔTm 29: -1.5 °C
[4]
  ΔTm 29: 8.8 °C
[5]
  ΔTm 29: 0.4 °C
[6]
  ΔTm 29: 0.6 °C

## Cc1cccc(-c2ccc(-c3cc4cnc(Nc5ccc(CCCO)cc5)nc4n(CCCCN)c3=O)c(Cl)c2)n1 [compound 30, 8-(4-Aminobutyl)-6-(2-chloro-4-(6-methylpyridin-2-yl)phenyl)-2-((4-(3-hydroxypropyl)phenyl)amino)pyrido[2,3-d]pyrimidin-7(8H)-one]
[7]
  dTm MST2: 15.8 °C
[8]
  dTm MST3: 16.7 °C
[2]
  ΔTm 30: 8.6 °C
[3]
  ΔTm 30: -0.9 °C
[4]
  ΔTm 30: 16.6 °C
[5]
  ΔTm 30: 0.3 °C
[6]
  ΔTm 30: 4.8 °C

## Cc1cccc(-c2ccc(-c3cc4cnc(Nc5ccc(O)cc5)nc4n(CCCCN)c3=O)c(Cl)c2)n1 [compound 31, 8-(4-Aminobutyl)-6-(2-chloro-4-(6-methylpyridin-2-yl)phenyl)-2-((4-hydroxyphenyl)amino) pyrido[2,3-d]pyrimidin-7(8H)-one]
[7]
  dTm MST2: 13.7 °C
[8]
  dTm MST3: 17.1 °C
[2]
  ΔTm 31: 7.7 °C
[3]
  ΔTm 31: -1.6 °C
[4]
  ΔTm 31: 16.6 °C
[5]
  ΔTm 31: 0.9 °C
[6]
  ΔTm 31: 3.1 °C

## Cc1cccc(-c2ccc(-c3cc4cnc(Nc5ccc(C)c(O)c5)nc4n(CCCCN)c3=O)c(Cl)c2)n1 [compound 32, 8-(4-Aminobutyl)-6-(2-chloro-4-(6-methylpyridin-2-yl)phenyl)-2-((3-hydroxy-4-methylphenyl)amino)pyrido[2,3-d]pyrimidin-7(8H)-one]
[7]
  dTm MST2: 13.2 °C
[8]
  dTm MST3: 17.5 °C
[2]
  ΔTm 32: 7.8 °C
[3]
  ΔTm 32: -0.8 °C
[4]
  ΔTm 32: 16.6 °C
[5]
  ΔTm 32: 0.8 °C
[6]
  ΔTm 32: 3.5 °C

## Cc1cccc(-c2ccc(-c3cc4cnc(Nc5ccc(F)c(CO)c5)nc4n(CCCCN)c3=O)c(Cl)c2)n1 [compound 33, 8-(4-Aminobutyl)-6-(2-chloro-4-(6-methylpyridin-2-yl)phenyl)-2-((4-fluoro-3-(hydroxymethyl)phenyl)amino)pyrido[2,3-d]pyrimidin-7(8H)-one]
[7]
  dTm MST2: 16.0 °C
[8]
  dTm MST3: 16.9 °C

## COc1ccc(O)c(Nc2ncc3cc(-c4ccc(-c5cccc(C)n5)cc4Cl)c(=O)n(CCCCN)c3n2)c1 [compound 34, 8-(4-Aminobutyl)-6-(2-chloro-4-(6-methylpyridin-2-yl)phenyl)-2-((2-hydroxy-5-methoxy-phenyl)amino)pyrido[2,3-d]pyrimidin-7(8H)-one]
[7]
  dTm MST2: 5.4 °C
[8]
  dTm MST3: 11.0 °C

## COc1cc(N2CCOCC2)ccc1Nc1ncc2cc(-c3ccc(-c4cccc(C)n4)cc3Cl)c(=O)n(CCCCN)c2n1 [compound 35, 8-(4-Aminobutyl)-6-(2-chloro-4-(6-methylpyridin-2-yl)phenyl)-2-((2-methoxy-4-morpholino-phenyl)amino)pyrido[2,3-d]pyrimidin-7(8H)-one]
[7]
  dTm MST2: 7.5 °C
[8]
  dTm MST3: 11.0 °C

## COc1cc(N2CCN(C)CC2)ccc1Nc1ncc2cc(-c3ccc(-c4cccc(C)n4)cc3Cl)c(=O)n(CCCCN)c2n1 [compound 36, 8-(4-Aminobutyl)-6-(2-chloro-4-(6-methylpyridin-2-yl)phenyl)-2-((2-methoxy-4-(4-methylpiperazin-1-yl)phenyl)amino)pyrido[2,3-d]pyrimidin-7(8H)-one]
[7]
  dTm MST2: 7.4 °C
[8]
  dTm MST3: 13.5 °C
